{"source": "patent US5468730A", "about": "“Methods for the treatment of non-IgE-mediated diseases” (Dura Pharmaceuticals, Inc., priority 1992, dated 1995)", "key": {"[1]": {"system": "binding of IgE to lymphoblastoid tissue culture cells", "conditions": "two trials; reported in U.S. Pat. No. 4,161,522; cited from earlier work"}, "[2]": {"system": "chronic idiopathic urticaria (non-IgE-mediated)", "conditions": "human, in vivo"}, "[3]": {"system": "immune complex-induced colitis", "test": "Immune complex-mediated ulcerative colitis model (formalin + IgG immune complexes) in mice", "format": "in vivo, male BKA mice (outbred Swiss albino)", "method": "A mouse model of intestinal inflammation was employed wherein the efficacy of pentigetide in reducing inflammation induced by formalin and complement-fixing IgG immune complexes was measured. This model is particularly useful as a model of human ulcerative colitis and shares many clinical and histological functions of the human disease including sensitivity to glucocorticoids, sulfasalazine and 5-aminosalicylic acid (see L. P. Walsh, et al., British J. Pharm. 91:294 (1987); A. Blackham, et al., British J. Pharm. 89:694 (1986); L. D. Walsh and I. J. Zeitlin, British J. Pharm. 92:741 (1987)). The mouse model of intestinal inflammation used in these studies is induced by the exposure of the animals to chemicals which are known to trigger inflammatory processes in both animals and humans. […]\nColonic tissue water content was determined by tissue weight loss on drying of colonic tissues. […]\nThe response to immune complex alone was determined quantitatively by subtracting the mean value in group B from the mean value in group C. An estimate of the percentage reduction in this response produced by the drug was calculated as: [formula] […] Statistical significance was determined using the non-parametric Mann-Whitney U-test. […]"}, "[4]": {"system": "sheep erythrocyte (SRBC)-induced DTH reactions", "test": "Sheep erythrocyte (SRBC)-induced DTH footpad swelling in mice", "format": "in vivo, female Balb/C mice", "conditions": "indomethacin 1.0 mg/kg on day 4 (positive control); footpad volume about 24 h after challenge"}, "[5]": {"system": "Tetanus toxoid-induced DTH reactions", "parameters": "species or system female Balb/C mice", "conditions": "mouse, in vivo"}, "[6]": {"system": "carrageenan-induced inflammation", "test": "Carrageenan-induced footpad edema in mice", "format": "in vivo, female Balb/C mice", "method": "In order to examine the ability of pentigetide to inhibit carrageenan-induced inflammation, female Balb/C mice were injected with 0.025 ml of 1.0% carrageenan solution (type 1x carrageenan: Sigma No. C-1013, Lot No. 86F-0698) or saline in the right hind footpad 5 minutes after intravenous tail vein injection of 0.2 ml pentigetide (1.0 mg/kg) or saline solution."}}, "note": "Where “and” joins values, the source holds several entries; their conditions need not be identical. Equal values may be shown once. No end group written: not given here.", "data": [{"molecule": "Asn-Ser-Asp-Pro-Arg (NSDPR; printed: Asn-Ser-Asp-Pro-Arg) [peptide reported in U.S. Pat. No. 4,161,522]", "values": [{"measurement": "activity: ability to block binding of IgE to lymphoblastoid tissue culture cells", "setting": "[1]", "value": "lower activity"}]}, {"molecule": "DSDPR [pentigetide, Asp-Ser-Asp-Pro-Arg]", "values": [{"measurement": "side effects from the treatment", "setting": "[2]", "value": "did not experience any side effects"}]}, {"molecule": "C[C@]12C=CC(=O)C=C1CC[C@@H]1[C@@H]2[C@@H](O)C[C@@]2(C)[C@H]1CC[C@]2(O)C(=O)CO", "note": "[prednisolone]", "values": [{"measurement": "reduction of colonic edema", "setting": "[3]; prednisolone 5.0 mg/kg i.p. for three days prior to inflammation induction and daily thereafter, p<0.01", "value": 86.2, "unit": "%"}, {"measurement": "reduction of colonic edema (printed in the colitic sign score paragraph)", "setting": "[3]; prednisolone 5.0 mg/kg i.p., p<0.001", "value": 93.8, "unit": "%"}]}, {"molecule": "[-Cys-Ala-Asn-Ser-Asn-Pro-Arg]2", "values": [{"measurement": "activity: ability to block binding of IgE to lymphoblastoid tissue culture cells", "setting": "[1]", "value": "9% and 12%"}]}, {"molecule": "COc1ccc2c(c1)c(CC(=O)O)c(C)n2C(=O)c1ccc(Cl)cc1", "note": "[Indomethacin, indomethacin]", "values": [{"measurement": "inhibition", "setting": "[4]", "value": 43, "unit": "%"}, {"measurement": "inhibition", "setting": "[5]", "value": 45, "unit": "%"}, {"measurement": "Percent Inhibition", "setting": "[6]; 1.0 hours after carrageenan injection, indomethacin 10 mg/kg s.c. 24 hours prior to carrageenan", "value": -35, "unit": "%"}, {"measurement": "Percent Inhibition", "setting": "[6]; 2.0 hours after carrageenan injection, indomethacin 10 mg/kg s.c.", "value": -60, "unit": "%"}, {"measurement": "Percent Inhibition", "setting": "[6]; 4.0 hours after carrageenan injection, indomethacin 10 mg/kg s.c.", "value": -39, "unit": "%"}, {"measurement": "Percent Inhibition", "setting": "[6]; 6.0 hours after carrageenan injection, indomethacin 10 mg/kg s.c.", "value": -47, "unit": "%"}]}, {"molecule": "Asn-Ser-Asn-Pro-Arg (NSNPR; printed: Asn-Ser-Asn-Pro-Arg) [peptide reported in U.S. Pat. No. 4,161,522]", "values": [{"measurement": "activity: ability to block binding of IgE to lymphoblastoid tissue culture cells", "setting": "[1]", "value": "lower activity"}]}]}
